From patent publication US20160074643A1, “SKIN CARE PRODUCTS” (The Procter & Gamble Company, priority 2014, published 2016)
Where “and” joins values, the source holds several entries; their conditions need not be identical. Identical values can stand only once.

Test: Vitamin B3 in vivo skin penetration study #2: Tape Stripping Method, magnetic vs non-magnetic applicator
Set-up: species or system human; amount of niacinamide recovered from tape strip / amount of niacinamide recovered from tape strip, Avg / amount of niacinamide recovered, Sum 2-10 / amount of niacinamide recovered, Sum 2-10, Avg / amount of niacinamide recovered, Sum 6-10 / amount of niacinamide recovered, Sum 6-10, Avg: unit not given here
Settings: for amount of niacinamide recovered from tape strip, Avg / amount of niacinamide recovered, Sum 2-10, Avg / amount of niacinamide recovered, Sum 6-10, Avg: average across all 10 test sites; for amount of niacinamide recovered, Sum 2-10, Avg / amount of niacinamide recovered, Sum 2-10: sum of strips 2-10; for amount of niacinamide recovered, Sum 6-10, Avg / amount of niacinamide recovered, Sum 6-10: sum of strips 6-10
Procedure: This method provides a suitable means of measuring the amount of skin care active present in skin, and comparing active versus passive application of the skin care active. Two identical circular areas of 7.9 cm^2 were marked on the volar forearms of volunteers. A measured dose (approximately 9 mg) of the skin care formulation (ingredients shown in Table 1) was applied to the delineated areas using a screw actuated syringe. Active application was carried out using purpose made applicators having a metallic aluminium skin contact surface behind which was the magnetic array. The cream was spread evenly across the entire delineated region using the applicator in a sweeping motion with a fixed speed of approximately 3.5 cm/s to mimic normal finger application. Passive application was performed using the tip of a finger in a sweeping motion identical to that of application using the applicator. The application period was 30 seconds during which time visual inspection was used to ensure even distribution and absorption of the formulation by skin. The application area was then left uncovered for a further 30 minutes to ensure complete absorption. The application area was then wiped thoroughly to remove any surface material, followed by carrying out tape stripping.
The Tape Stripping Method can be carried out using commercial pre-cut 22.1 mm tape stripping adhesive discs (D-SQUAME brand tape strips from Cuderm Corporation or equivalent) with an adhesive area of 3.8 cm^2. A 22.1 mm diameter circular region was marked at the center of the application area. A tape stripping adhesive disc was placed over the marked area and even pressure applied using a neoprene roller, rolled ten times over the surface. The adhesive disc was removed from the skin surface in a single pulling motion using manual tweezers. To ensure even removal of the stratum corneum, subsequent discs were removed in a north, south, east and west orientation. Each adhesive disc was non-destructively analyzed for relative protein content using the SquameScan™ 850 instrument (Heiland Electronics Wetzlar Germany). The adhesive disc was then immediately placed into a glass vial containing extraction solvent in preparation for subsequent analysis. Solvent extractions are conducted on each tape strip using conventional extraction methods, which are well known to those of ordinary skill in the art, and measuring the amount of niacinamide present in the extract, for example, by high performance liquid chromatography (“HPLC”) and/or mass spectrometry.
In this example, 5 test subjects (A to E in Tables 13 and 14) were selected. […] The applicator used for active application included Array #8 from Table 2. The applicator used for passive application was the same as the one used for active application except without the magnetic array. Each forearm included an active application test site and a passive application site for a total of 10 active test sites and 10 passive sites. The application time was 30 seconds with a speed of motion of approximately 3 cm per second, equating to a gentle rubbing action. Application of the composition was followed by a 30 minute absorption period. […] The level of niacinamide recovered from each tape strip was measured using HPLC.
The average value across all test sites is shown in the second to last cell of the row. The standard error of the mean (SEM) is shown in the last column of Tables 13 and 14. The SEM is calculated by dividing the standard deviation by the square root of the number of test sites. The active versus passive application results from Tables 13 and 14 are graphically illustrated in FIG. 7.
The enhancement values shown in Table 15 are calculated by dividing the active value from Table 14 by the passive value from Table 13. The average shown in the last column of Table 15 is calculated by averaging the enhancement values of all the test sites. […]

[1] = active value divided by passive value, average of all test sites
[2] = active value divided by passive value, individual test sites, Subjects A-E, Site 1/2
[3] = Active Application (magnetic applicator, Array #8)
[4] = Active Application (magnetic applicator, Array #8), individual test sites, Subjects A-E, Site 1/2
[5] = Passive Application (non-magnetic applicator)
[6] = Passive Application (non-magnetic applicator), individual test sites, Subjects A-E, Site 1/2

Enhancement value Strips 2-10, Avg [1]: 1.47
Enhancement value Strips 6-10, Avg [1]: 1.46
niacinamide delivered into the skin, active compared to passive application (magnetic applicator vs non-magnetic applicator): about 1.5 ×
amount of niacinamide recovered from tape strip, Avg (strip 1, Active Application (magnetic applicator, Array #8)): 4.43
amount of niacinamide recovered from tape strip, Avg (strip 1, Passive Application (non-magnetic applicator)): 3.87
amount of niacinamide recovered from tape strip, Avg (strip 2, Active Application (magnetic applicator, Array #8)): 6.10
amount of niacinamide recovered from tape strip, Avg (strip 2, Passive Application (non-magnetic applicator)): 4.12
amount of niacinamide recovered from tape strip, Avg (strip 3, Active Application (magnetic applicator, Array #8)): 8.37
amount of niacinamide recovered from tape strip, Avg (strip 3, Passive Application (non-magnetic applicator)): 5.69
amount of niacinamide recovered from tape strip, Avg (strip 4, Active Application (magnetic applicator, Array #8)): 8.25
amount of niacinamide recovered from tape strip, Avg (strip 4, Passive Application (non-magnetic applicator)): 6.18
amount of niacinamide recovered from tape strip, Avg (strip 5, Active Application (magnetic applicator, Array #8)): 7.68
amount of niacinamide recovered from tape strip, Avg (strip 5, Passive Application (non-magnetic applicator)): 4.91
amount of niacinamide recovered from tape strip, Avg (strip 6, Active Application (magnetic applicator, Array #8)): 7.02
amount of niacinamide recovered from tape strip, Avg (strip 6, Passive Application (non-magnetic applicator)): 4.72
amount of niacinamide recovered from tape strip, Avg (strip 7, Active Application (magnetic applicator, Array #8)): 5.52
amount of niacinamide recovered from tape strip, Avg (strip 7, Passive Application (non-magnetic applicator)): 3.66
amount of niacinamide recovered from tape strip, Avg (strip 8, Active Application (magnetic applicator, Array #8)): 4.63
amount of niacinamide recovered from tape strip, Avg (strip 8, Passive Application (non-magnetic applicator)): 3.43
amount of niacinamide recovered from tape strip, Avg (strip 9, Active Application (magnetic applicator, Array #8)): 5.11
amount of niacinamide recovered from tape strip, Avg (strip 9, Passive Application (non-magnetic applicator)): 3.59
amount of niacinamide recovered from tape strip, Avg (strip 10, Active Application (magnetic applicator, Array #8)): 4.48
amount of niacinamide recovered from tape strip, Avg (strip 10, Passive Application (non-magnetic applicator)): 3.20
amount of niacinamide recovered, Sum 2-10, Avg [3]: 57.16
amount of niacinamide recovered, Sum 2-10, Avg [5]: 39.48
amount of niacinamide recovered, Sum 6-10, Avg [3]: 26.76
amount of niacinamide recovered, Sum 6-10, Avg [5]: 18.59
Structure (SMILES): NC(=O)c1cccnc1 [niacinamide]
Enhancement value Strips 2-10 [2]: 1.63 and 1.35 and 1.77 and 1.47 and 1.51 and 1.26 and 1.19 and 1.39 and 1.59 and 1.54
Enhancement value Strips 6-10 [2]: 1.53 (2×) and 1.34 and 1.71 and 1.41 and 1.83 and 1.19 and 1.21 and 1.39 and 1.43
amount of niacinamide recovered from tape strip (strip 1, Passive Application (non-magnetic applicator), individual test sites, Subjects A-E, Site 1/2): 2.62 and 3.31 and 3.07 and 2.86 and 3.16 and 5.69 and 4.14 and 6.28 and 0.54 and 7.00
amount of niacinamide recovered from tape strip (strip 2, Passive Application (non-magnetic applicator), individual test sites, Subjects A-E, Site 1/2): 2.66 and 3.81 and 2.71 and 2.52 and 4.24 and 7.80 and 5.47 and 7.28 and 1.84 and 2.88
amount of niacinamide recovered from tape strip (strip 3, Passive Application (non-magnetic applicator), individual test sites, Subjects A-E, Site 1/2): 3.51 and 5.43 and 6.33 and 3.77 and 6.64 and 7.64 and 6.14 and 9.62 and 2.43 and 5.36
amount of niacinamide recovered from tape strip (strip 4, Passive Application (non-magnetic applicator), individual test sites, Subjects A-E, Site 1/2): 4.22 and 2.79 and 8.53 and 4.24 and 7.48 and 7.15 and 5.87 and 11.29 and 1.29 and 8.91
amount of niacinamide recovered from tape strip (strip 5, Passive Application (non-magnetic applicator), individual test sites, Subjects A-E, Site 1/2): 4.57 and 3.79 and 6.08 and 2.74 and 6.35 and 6.21 and 5.61 and 7.10 and 2.27 and 4.36
amount of niacinamide recovered from tape strip (strip 6, Passive Application (non-magnetic applicator), individual test sites, Subjects A-E, Site 1/2): 4.37 and 3.42 and 6.69 and 1.97 and 5.29 and 7.95 and 4.56 and 6.46 and 2.62 and 3.85
amount of niacinamide recovered from tape strip (strip 7, Passive Application (non-magnetic applicator), individual test sites, Subjects A-E, Site 1/2): 3.57 and 3.37 and 4.35 and 1.87 and 3.82 and 6.89 and 5.41 and 0.19 and 2.67 and 4.47
amount of niacinamide recovered from tape strip (strip 8, Passive Application (non-magnetic applicator), individual test sites, Subjects A-E, Site 1/2): 2.65 and 2.92 and 2.85 and 1.56 and 4.65 and 5.34 and 2.94 and 5.75 and 1.88 and 3.71
amount of niacinamide recovered from tape strip (strip 9, Passive Application (non-magnetic applicator), individual test sites, Subjects A-E, Site 1/2): 2.95 and 2.37 and 2.24 and 2.00 and 3.78 and 6.70 and 2.79 and 7.20 and 2.15 and 3.70
amount of niacinamide recovered from tape strip (strip 10, Passive Application (non-magnetic applicator), individual test sites, Subjects A-E, Site 1/2): 1.58 and 2.24 and 1.54 and 1.31 and 4.53 and 5.34 and 2.42 and 6.19 and 0.71 and 6.10
amount of niacinamide recovered, Sum 2-10 [4]: 49.17 and 40.65 and 72.98 and 32.23 and 70.46 and 76.77 and 48.95 and 85.20 and 28.48 and 66.67
amount of niacinamide recovered, Sum 2-10 [6]: 30.09 and 30.15 and 41.32 and 21.97 and 46.79 and 61.02 and 41.20 and 61.08 and 17.87 and 43.34
amount of niacinamide recovered, Sum 6-10 [4]: 23.12 and 19.16 and 30.14 and 12.25 and 40.38 and 38.27 and 21.85 and 35.82 and 15.32 and 31.26
amount of niacinamide recovered, Sum 6-10 [6]: 15.13 and 14.32 and 17.67 and 8.70 and 22.07 and 32.21 and 18.11 and 25.79 and 10.04 and 21.84
